{
  "source": "patent US5672603A",
  "about": "“Apoptosis regulating composition” (Otsuka Pharmaceutical Co., Ltd., priority 1991, dated 1997)",
  "key": {"[1]": {"system": "human adult T cell leukemic cells (5S)", "assay": "ATL-infected cell growth inhibition test: ATLV-infected cells", "assay_type": "cell-based", "conditions": "for Number of ATLV-infected cells: 4 days, control 6.5", "protocol": "Human adult T cell leukemia cells (5S) were used to prepare a suspension of 1×10^5 cells/ml in RPMI-1640 medium (Gibco) supplemented 10% fetal calf serum (FCS, Gibco) for use as ATL virus-infected cells.\nCompound 1 was dissolved in hydrochloric acid, diluted with the same medium as above, neutralized with 2N NaOH and adjusted to concentrations of 1 μg/ml, 10 μg/ml and 30 μg/ml.\nThe cells prepared in (a) and (b) above were respectively placed in wells of a 24-well culture plate (Nunc), followed by addition of the test compound prepared in (c) (final concentration: 1 μg/ml, 10 μg/ml or 30 μg/ml), and cultured at 37° C. in a 5% carbon dioxide incubator for 4 days. As a control, the medium without addition of the test compound was used. After completion of incubation, the cell suspension in each well was taken for determination of viable cells."}, "[2]": {"system": "acute hepatic failure model", "assay": "Effect on hepatic failure (heat-killed bacteria / LPS), survival", "assay_type": "in vivo, Balb/c mice", "conditions": "for Survival rate: 7 days after LPS, untreated 0%, solvent 10%", "protocol": "Heat-killed cells of P. aches (a gift from Dr. Mizoguchi, the Third Department of Internal Medicine, Osaka City University School of Medicine) were administered intravenously in a dose of 3 mg/body to male Balb/c mice (7 weeks old, purchased from Japan SLC). Seven days later; a solvent group (0.5% CMC, Dai-ichi Kogyo Seiyaku Co., Ltd) and an untreated group, as well as the test groups given 10 or 100 mg/kg of Compound 1 orally, were provided. One hour after administration of Compound 1, 5 μg/body of lipopolysaccharide (LPS, Sigma Co., Ltd.) was administered intravenously to induce acute hepatic failure."}, "HL-60 cells": {"system": "HL-60 cells", "assay": "Differentiation of HL-60 cells (Giemsa and esterase staining)", "assay_type": "cell-based, human", "conditions": "day 27", "protocol": "The concentration of HL-60 cells was adjusted to 1×10^5 cells/ml using RPMI-1640 medium (GIBCO) supplemented with 10% of FCS (fetal calf serum; GIBCO).\nGiemsa stain solution was prepared by diluting Giemsa reagent (Merck) 50-100 times with phosphate buffer (pH 6.4).\nA reagent for esterase staining (Muto Kagaku) was used according to the naphthol AS-D chloroacetate method.\nHL-60 cells prepared as described above under (1) were cultivated in the same manner as in a). Cells collected on day 27 were placed on a slide glass and subjected to Giemsa staining, followed by morphological observation under a microscope. […] The results of esterase staining by the naphthol AS-D chloroacetate method indicated differentiation of 70-85% of HL-60 cells into granulocytes."}, "[3]": {"system": "CMK cells (platelet-associated antigen, glycoprotein IIb/IIIa)", "assay": "Expression of platelet-associated antigen of CMK cells (Plt-1 antibody)", "assay_type": "cell-based, human", "conditions": "30 μg/ml", "protocol": "Compound 1 was dissolved in 1N hydrochloric acid and diluted with fetal calf serum (FCS, Gibco) to give a 1 mg/ml solution. This solution was added to RPMI-1640 medium (Flow Laboratories) supplemented 10% FCS and the mixture was neutralized with 1N NaOH and adjusted to a concentration of 30 μg/ml before use.\nCMK cells were established by T. Sato et al. from patients with acute megakaryocytic leukemia. They are known to react with anti-platelet antibodies (anti-glycoprotein IIb/IIIa antibody, anti-glycoprotein Ib antibody and Plt-1 antibody). Moreover, it has mega-karyocyte-like properties, such as formation of α granules and a demarcation membrane in the cytoplasm. Therefore, these cells have been used for the analysis of the growth and differentiation of megakaryocytes [Sato, T., et al., Exp. Hematol., 15, 495 (1987); Sunami, S., et al., Blood, 70., 368 (1987); Komatsu, N., et al., Blood, 74(1), 42-48 (1989); Fuse, A., et al., British J. Haematology, 77, 32-36 (1991); Acta Haematologia Japonica 53(2), 294-295, 317-318 (1990)].\nCMK cells were supplied by Dr. Takelruki Sato at the Department of Pediatrics, Chiba University School of Medicine. The cells, 5×10^4 cells/ml, were cultured in RPMI-1640 medium supplemented 10% FCS and subcultured every four days.\nCMK cells, 1×10^5 cells/ml, were incubated in 10% FCS-added RPMI-1640 medium, containing 30 μg/ml of Compound 1, for 4 days and the expression of platelet-associated antigen on the cell surface was determined by flow cytometry (Coulter) using FITC-labeled Plt-1 antibody (Coulter). The medium containing no Compound 1 was used as a solvent control.\nFor the analysis of cell surface antigen, 1×10^6 cells/100 μl of CFIK cells were taken into a tube (Fischer) and reacted with 5 μl of FITC-labeled Plt-1 antibody at 4° C. for 30 minutes. The reaction mixture was washed three times with phosphate buffer containing 0.1% bovine serum albumin and determined for the percentage positive cells and fluorescence intensity.\nThe above-mentioned Plt-1 antibody (Coulter) is an antibody recognizing the platelet-associated antigen, glycoprotein IIb/IIIa and has been reported to increase with differentiation or maturation of CMK cells [Komatsu, N., et al., Blood, 74(1), 42-48 (1989)]."}, "CMK cells": {"system": "CMK cells", "assay": "Morphological observation of CMK cells", "assay_type": "cell-based, human", "conditions": "30 μg/ml; 4 days", "protocol": "CMK cells, 1×10^5 cells/ml, were incubated in 10% FCS-added RPMI-1640 medium containing Compound 1 for 4 days and observed for the morphology of cells under the phase contrast microscope. A portion of the cell population was taken and a cytospin preparation was prepared and stained with Wright-Giemsa stain for determination of the cell morphology.\nThus, FIGS. 4 and 6 are the phase constrast micrograph and stained map, respectively, of the medium control, and FIGS. 5 and 7 represent the corresponding figures for cells treated with 30 μg/ml of Compound 1."}},
  "data": [
    {"smiles": "COc1ccc(C(=O)N2CCN(c3ccc4c(c3)CCC(=O)N4)CC2)cc1OC", "note": "[Compound 1, 6-[4-(3,4-Dimethoxybenzoyl)-1-piperazinyl]-3,4-dihydrocarbostyril]", "values": [
      {"measurement": "Number of ATLV-infected cells", "setting": "[1]; 1 μg/ml", "value": "0.6 ×10^5"},
      {"measurement": "Number of ATLV-infected cells", "setting": "[1]; 10 μg/ml", "value": "0.2 ×10^5"},
      {"measurement": "Number of ATLV-infected cells", "setting": "[1]; 30 μg/ml", "value": "3.3 ×10^5"},
      {"measurement": "Growth inhibition of ATLV-infected cells (in words)", "setting": "[1]; at least 1 μg/ml", "value": "potent inhibitory effect on the growth of ATLV-infected cells"},
      {"measurement": "Survival rate", "setting": "[2]; 10 mg/kg oral", "value": 30, "unit": "%"},
      {"measurement": "Survival rate", "setting": "[2]; 100 mg/kg oral", "value": 70, "unit": "%"},
      {"measurement": "Life-prolonging effect in acute hepatitis model (in words)", "setting": "[2]; 10 and 100 mg/kg oral", "value": "dose-dependent and excellent life-prolonging effect"},
      {"measurement": "Morphological change, Giemsa staining", "setting": "HL-60 cells", "value": "differentiation into cells with granule was observed"},
      {"measurement": "Differentiation of HL-60 cells into granulocytes (esterase staining)", "setting": "HL-60 cells; naphthol AS-D chloroacetate method", "value": "70-85%"},
      {"measurement": "Change in percentage of Plt-1 positive cells (in words)", "setting": "[3]", "value": "no change in the percentage of positive cells"},
      {"measurement": "Cell count", "setting": "[3]; 4 days, solvent control 5.8", "value": "3.2 10^5 /ml"},
      {"measurement": "Plt-1 percentage positive cells (%)", "setting": "[3]; 4 days, solvent control 96.1", "value": 96.5, "unit": "%"},
      {"measurement": "activity at 30 µg/mL", "setting": "[3]; Homo sapiens, CMK, 96 h, 4 days, solvent control 100, read-out: Plt-1 mean fluorescence intensity (%)", "value": 192, "unit": "%"},
      {"measurement": "fold induction at 30 µg/mL", "setting": "[3]; Homo sapiens, CMK, read-out: Increase in expression of platelet-associated antigen", "value": 2},
      {"measurement": "Morphology, Wright-Giemsa stained map", "setting": "CMK cells", "value": "budding of the cell membrane and lobulation of the nuclei"},
      {"measurement": "Morphology, phase contrast micrograph", "setting": "CMK cells", "value": "fragmentation of cells like in the process of platelet production"}
    ]}
  ]
}
